# Test results published in patent US20240139333A1, “2,6-DICHLOROPHENYL ESTER COMPOUNDS AND USE THEREOF” (Fusion Pharmaceuticals Inc., priority 2021, published 2024).
# Assays:
# [1] = Comparative active ester reactivity study with HOA nucleophile (benzhydroxamic acid); conditions: Benzhydroxamic Acid 1 eq., 22±2° C.
# Method: (§1) General Experimental Protocol for Comparative Active Ester Reactivity Study with HOPO or HOA Nucleophiles
# (§2) To a 4 mL scintillation vial containing Compound A-E (in respective experiments; 1 eq.) was added a stir bar followed by 150 μL of HPLC grade acetonitrile. In another 4 mL scintillation vial containing a respective nucleophile (1 eq.) was added 280 μL HPLC grade water. The solutions were combined and allowed to stir at room temperature (22±2° C.) for 4 hours. Timed aliquots at time (T)=15, 30, 60, 120 and 240 minutes were taken and analyzed by HPLC-MS using elution method 1 (Table 1).
# pH stability study = type: physicochemical; conditions: 20° C.
# Method: To a 4 mL scintillation vial containing Compound A-E (in respective experiments; 0.8 mg) was added 4 mL of either a pH 3, pH 5 pH 7 or pH 9 buffer to create a 0.2 mg/mL solution. 2 mL of this solution was added to a 2 mL HPLC vial and placed in the auto sampler of an HPLC-MS at 20° C. Timed aliquots at time (T)=15, 30, 60, 120, 240 and 480 minutes were taken and analyzed by HPLC-MS using elution method 1 (Table 3). […]
# pH 3 Buffer: Citric acid/Na2HPO4 (79.45 mL 0.1 M-citric acid and 20.55 mL 0.2-Na2HPO4) pH 5 Buffer: Citric acid/Na2HPO4 (48.50 mL 0.1 M-citric acid and 51.50 mL 0.2-Na2HPO4) pH 7 Buffer: Citric acid/Na2HPO4 (17.65 mL 0.1 M-citric acid and 82.35 mL 0.2-Na2HPO4) pH 9 Buffer: Sodium Carbonate/Sodium Bicarbonate (10 mL 0.1 M-Na2CO3 and 90 mL 0.1-NaHCO3)
# [2] = Active ester reactivity study with amino acids (N-Acetyl-L-Cysteine); conditions: N-Acetyl-L-Cysteine 5 eq., 22±2° C.
# Method: (§3) General Experimental Protocol for Nucleophilic Reactivity Study with Amino Acids
# (§4) To a 4 mL scintillation vial containing Compound A or C (1 eq.) was added a stir bar followed by 70 μL of HPLC grade acetonitrile. In another 4 mL scintillation vial containing a respective amino acid (1-5 eq.) was added 130 μL HPLC grade water followed by diisopropylethylamine (5 eq.). The solutions were combined and allowed to stir at room temperature (22±2° C.) for 4 hours. Timed aliquots at time (T)=15, 30, 60, 120 and 240 minutes were taken and analyzed by HPLC-MS using elution method 1 (Table 6).
# [3] = Nucleophilic reactivity study with L-Lysine; conditions: L-Lysine 5 equiv
# Method: General Experimental Protocol for Nucleophilic Reactivity Study with L-Lysine
# To a 4 mL scintillation vial containing Compound A-E (in respective experiments; 1 eq.) was added a stir bar followed by 70 μL of HPLC grade acetonitrile. In another 4 mL scintillation vial containing L-Lysine monohydrochloride (5 eq.) was added 130 μL HPLC grade water followed by diisopropylethylamine (5 eq.). The solutions were combined and allowed to stir at room temperature (22±2° C.). Timed aliquots at time (T)=15, 30, 60 and 120 minutes were taken and analyzed by HPLC-MS using elution method 1 (Table 2).
# [4] = Active ester reactivity study with amino acids (Z-Ser-OH); conditions: Z-Ser-OH 1 eq., 22±2° C.
# Method: as §3, §4
# [5] = Comparative active ester reactivity study with HOA nucleophile (N-hydroxy-N-methylbenzamide); conditions: N-Hydroxy-N-methylbenzamide 1 eq., 22±2° C.
# Method: as §1, §2
# [6] = Active ester reactivity study with amino acids (Z-Arg-OH); conditions: Z-Arg-OH 1 eq., 22±2° C.
# Method: as §3, §4
# [7] = Comparative active ester reactivity study with HOPO nucleophile; conditions: 1,2-HOPO 1 eq., 22±2° C.
# Method: as §1, §2
# DMSO stability study = type: physicochemical
# Method: To a 4 mL scintillation vial containing Compound A-E (in respective experiments; 4 mg) was added a stir bar followed by 500 μL of anhydrous dimethyl sulfoxide and was allowed to stir at room temperature (22±2° C.) for 4 hours. Timed aliquots at time (T)=15, 30, 60, 120 and 240 minutes were taken, dissolved in water to achieve 2% DMSO composition and analyzed by HPLC-MS using elution method 1 (Table 5).
compound,measurement,setting,value
"O=C(CCc1cccnc1)Oc1c(Cl)cccc1Cl [Compound A, 2,6-Dichlorophenyl-3-(pyridin-3-yl)propanoate]",% Active Ester Remaining,[1]; 15 min,97.05%
same,% Active Ester Remaining,[1]; 30 min,95.97%
same,% Active Ester Remaining,[1]; 60 min,92.36%
same,% Active Ester Remaining,[1]; 120 min,86.65%
same,% Active Ester Remaining,[1]; 240 min,78.07%
same,% Remaining,"pH stability study; pH 3 buffer, 15 min",100%
same,% Remaining,"pH stability study; pH 3 buffer, 30 min",100%
same,% Remaining,"pH stability study; pH 3 buffer, 60 min",100%
same,% Remaining,"pH stability study; pH 3 buffer, 120 min",100%
same,% Remaining,"pH stability study; pH 3 buffer, 240 min",100%
same,% Remaining,"pH stability study; pH 3 buffer, 480 min",100%
same,% Remaining,"pH stability study; pH 5 buffer, 15 min",100%
same,% Remaining,"pH stability study; pH 5 buffer, 30 min",100%
same,% Remaining,"pH stability study; pH 5 buffer, 60 min",100%
same,% Remaining,"pH stability study; pH 5 buffer, 120 min",100%
same,% Remaining,"pH stability study; pH 5 buffer, 240 min",100%
same,% Remaining,"pH stability study; pH 5 buffer, 480 min",100%
same,% Remaining,"pH stability study; pH 7 buffer, 15 min",100%
same,% Remaining,"pH stability study; pH 7 buffer, 30 min",100%
same,% Remaining,"pH stability study; pH 7 buffer, 60 min",100%
same,% Remaining,"pH stability study; pH 7 buffer, 120 min",99.35%
same,% Remaining,"pH stability study; pH 7 buffer, 240 min",98.75%
same,% Remaining,"pH stability study; pH 7 buffer, 480 min",97.82%
same,% Remaining,"pH stability study; pH 9 buffer, 15 min",98.15%
same,% Remaining,"pH stability study; pH 9 buffer, 30 min",95.27%
same,% Remaining,"pH stability study; pH 9 buffer, 60 min",92.61%
same,% Remaining,"pH stability study; pH 9 buffer, 120 min",87.81%
same,% Remaining,"pH stability study; pH 9 buffer, 240 min",79.28%
same,% Remaining,"pH stability study; pH 9 buffer, 480 min",61.56%
same,% Active Ester Remaining,[2]; 15 min,100%
same,% Active Ester Remaining,[2]; 30 min,99.86%
same,% Active Ester Remaining,[2]; 60 min,99.84%
same,% Active Ester Remaining,[2]; 120 min,99.70%
same,% Active Ester Remaining,[2]; 240 min,82.52%
same,% Active Ester Remaining,"[3]; 15 min, 22±2° C.",60.44%
same,% Active Ester Remaining,"[3]; 30 min, 22±2° C.",26.31%
same,% Active Ester Remaining,"[3]; 60 min, 22±2° C.",0.98%
same,% Active Ester Remaining,"[3]; 120 min, 22±2° C.",0%
same,% Active Ester Remaining,"[3]; DMAP 10 mol % added, 15 min",0.86%
same,% Active Ester Remaining,"[3]; DMAP 10 mol % added, 30 min",0%
same,% Active Ester Remaining,[4]; 15 min,97.56%
same,% Active Ester Remaining,[4]; 30 min,97.14%
same,% Active Ester Remaining,[4]; 60 min,96.30%
same,% Active Ester Remaining,[4]; 120 min,93.35%
same,% Active Ester Remaining,[4]; 240 min,91.55%
same,% Active Ester Remaining,[5]; 15 min,99.57%
same,% Active Ester Remaining,[5]; 30 min,99.24%
same,% Active Ester Remaining,[5]; 60 min,98.36%
same,% Active Ester Remaining,[5]; 120 min,96.11%
same,% Active Ester Remaining,[5]; 240 min,92.22%
same,% Active Ester Remaining,[6]; 15 min,94.23%
same,% Active Ester Remaining,[6]; 30 min,90.34%
same,% Active Ester Remaining,[6]; 60 min,86.74%
same,% Active Ester Remaining,[6]; 120 min,78.45%
same,% Active Ester Remaining,[6]; 240 min,73.31%
same,% Active Ester Remaining,[7]; 15 min,99.32%
same,% Active Ester Remaining,[7]; 30 min,98.56%
same,% Active Ester Remaining,[7]; 60 min,96.90%
same,% Active Ester Remaining,[7]; 120 min,95.51%
same,% Active Ester Remaining,[7]; 240 min,93.74%
same,% Active Ester Remaining in DMSO at 22 ± 2° C.,DMSO stability study; 15 min,100%
same,% Active Ester Remaining in DMSO at 22 ± 2° C.,DMSO stability study; 30 min,99.95%
same,% Active Ester Remaining in DMSO at 22 ± 2° C.,DMSO stability study; 60 min,99.81%
same,% Active Ester Remaining in DMSO at 22 ± 2° C.,DMSO stability study; 120 min,99.75%
same,% Active Ester Remaining in DMSO at 22 ± 2° C.,DMSO stability study; 240 min,99.60%
